Measurements as given in patent publication US11365185B2, “Lysophosphatidic acid receptor 1 (LPAR1) inhibitor compounds” (Eli Lilly and Company, priority 2017, dated 2022).
Structures can show the parent of a compound that is named as a salt.

Tests used:
human LPAR3 = human LPAR3 (Homo sapiens (Human), UniProt Q9UBY5); assay: LPAR3 Calcium Flux Assay; type: cell-based; conditions: U2OS cells overexpressing human LPAR3, LPA-stimulated calcium, FLIPR
Method: LPAR3 Calcium Flux Assays
(§1) A cDNA encoding the human LPAR3 receptor is synthesized and cloned into pDNA3 expression plasmid. The plasmid is transfected in U2OS cells using Lipofectamine 2000 (Invitrogen Corp., USA). Clones stably expressing human LPAR3 are selected using neomycin and identified as cells that show Ca-influx in response to LPA.
U2OS cells overexpressing human LPAR3 are seeded at 20,000-40,000 cells per well in a 96-well poly-D-lysine coated plate one day before the assay. Prior to the assay, the cells are washed once with assay buffer (HBSS containing 20 mM HEPES and 0.2% BSA) and then incubated in 50 μl of assay buffer for 60 minutes. Then 50 μl of a calcium indicator dye (Fluo-4 NW, Molecular Probes) are added to each well and incubation is continued for 30 minutes at 37° C. and then 30 minutes at room temperature. 50 μl of test compounds in 4% DMSO are added to the cells and incubation continued at room temperature for 40 minutes. Cells are stimulated by the addition of 50 μl of 128 nM LPA and intracellular calcium is measured using the FLIPR TETRA (Molecular Devices). IC50 values are determined using “Genedata Screener” analysis tool.

[1] = test system: Human hepatic stellate cell line LX-2; assay: Calcium Influx of Human Hepatic Stellate Cells (LX-2); type: cell-based; conditions: LX-2 cells, LPA-stimulated calcium influx
Method: Calcium Influx of Human Hepatic Stellate Cells (LX-2)
Human hepatic stellate cell line LX-2 is purchased from EMD Millpore. LX-2 cells are seeded at 20,000-40,000 cells per well in a 96-well poly-D-lysine coated plate one day before the assay. Prior to the assay, the cells are washed once with assay buffer (HBSS containing 20 mM HEPES and 0.2% BSA) and then incubated in 50 μl of assay buffer for 60 minutes. Then 50 μl of a calcium indicator dye (Fluo-4 NW, Molecular Probes) are added to each well and incubation is continued for 30 minutes at 37° C. and then 30 minutes at room temperature. 50 μl of test compounds in 4% DMSO are added to the cells and incubation is continued at room temperature for 40 minutes. Cells are stimulated by the addition of 50 μl of 128 nM LPA and intracellular calcium is measured using the FLIPR TETRA (Molecular Devices). IC50 values are determined using “Genedata Screener” analysis tool.

LPAR1 [2] = biological target: T1, LPAR1 (Homo sapiens (Human), UniProt Q92633); assay: LPAR1 Calcium Flux Assay; type: cell-based; conditions: U937 cells overexpressing human LPAR1, LPA-stimulated calcium, FLIPR
Method: LPAR1 Calcium Flux Assays
as §1, with “LPAR1” for “LPAR3”, “U937” for “U2OS”, “puromycin” for “neomycin”
Target sequence in this assay (Q92633 whole entry): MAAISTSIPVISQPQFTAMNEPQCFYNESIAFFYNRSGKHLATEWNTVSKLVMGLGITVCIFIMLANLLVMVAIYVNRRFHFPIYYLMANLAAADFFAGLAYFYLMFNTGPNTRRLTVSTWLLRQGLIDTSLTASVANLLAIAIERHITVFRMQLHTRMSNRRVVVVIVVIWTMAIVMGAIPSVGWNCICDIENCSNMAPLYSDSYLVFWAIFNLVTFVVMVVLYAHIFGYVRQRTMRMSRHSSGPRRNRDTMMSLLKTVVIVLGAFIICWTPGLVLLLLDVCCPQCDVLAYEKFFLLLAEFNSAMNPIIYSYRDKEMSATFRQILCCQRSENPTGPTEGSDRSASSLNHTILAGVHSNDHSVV
U937 cells overexpressing human LPAR1 are seeded at 100,000 cells per well in a 96-well fibronectin (10 ug/ml) coated plate in 60 μl of assay buffer (HBSS containing 20 mM HEPES and 0.2% BSA) and then incubated for 60 minutes. Then 50 μl of a calcium indicator dye (Fluo-4 NW, Molecular Probes) are added to each well and incubation continued for 30 minutes at 37° C. and then 30 minutes at room temperature. 50 μl of test compounds in 4% DMSO are added to the cells and incubation continued at room temperature for 40 minutes. Cells are the stimulated by the addition of 50 μl of 128 nM LPA and intracellular calcium is measured using the FLIPR TETRA (Molecular Devices). IC50 values are determined using “Genedata Screener” analysis tool.

LPAR1 [3] = biological target: T1, LPAR1; assay: LPAR1 Membrane Binding Assay; conditions: membrane containing LPAR1, radio labeled ligand, SPA
Method: LPAR1 Membrane Binding Assay
The ability of a compound to inhibit binding of a ligand (1-(4′-(4-(((benzyloxy)carbonyl)amino)-3-methylisoxazol-5-yl)-[1,1′-biphenyl]-4-yl)cyclopropane-1-carboxylic acid) to LPAR1 is assessed via a membrane binding assay. Membrane containing LPAR1 was purchased from Cerep (Cat. No. 290312RB). Prior to the assay, membrane is thawed and homogenized for 15 seconds. 50 μl of test compounds and 50 μl of radio labeled ligand are added to the 96-well plates and then 50 of μl membrane (50-400 ug/ml) are added. Next, 50 μl of SPA PVT WGA beads are added (1-5 mg/ml) and the plates are sealed and incubated at room temperate for 5 minutes. Radio activity is measured by Beta Counter and IC50 values are determined using “Genedata Screener” analysis tool.
Target sequence in this assay (Q92633 whole entry, species assumed): as the sequence (Q92633 whole entry) above

Chain of human LPAR3 (Q9UBY5 whole entry): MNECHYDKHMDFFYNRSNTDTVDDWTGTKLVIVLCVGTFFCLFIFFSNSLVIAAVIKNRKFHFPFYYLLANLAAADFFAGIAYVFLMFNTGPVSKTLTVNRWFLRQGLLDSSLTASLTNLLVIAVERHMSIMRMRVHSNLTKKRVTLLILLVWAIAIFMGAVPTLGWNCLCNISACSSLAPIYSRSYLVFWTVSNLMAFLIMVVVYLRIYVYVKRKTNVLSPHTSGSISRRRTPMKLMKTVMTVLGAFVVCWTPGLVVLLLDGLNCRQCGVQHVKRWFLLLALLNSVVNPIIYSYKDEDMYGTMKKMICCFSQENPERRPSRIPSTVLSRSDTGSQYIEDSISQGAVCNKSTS

SMILES | IC50 (human LPAR3) [nM] | IC50 [1] [nM] | IC50 (LPAR1 [2]) [nM] | Ki (LPAR1 [3]) [nM]
Cn1ncc(-c2ccc(-c3ccc(C4(C(=O)O)CC4)cc3)cn2)c1Nc1cncc(OC(C)(C)C)n1 [Example 1, 1-[4-[6-[5-[(6-tert-butoxypyrazin-2-yl)amino]-1-methyl-pyrazol-4-yl]-3-pyridyl]phenyl]cyclopropanecarboxylic Acid] | 1330 | 37.2 | 74.4 | 
Cn1ncc(-c2ccc(-c3ccc(C4(C(=O)O)CC4)cc3)cn2)c1Nc1cncc(OC2CCC2)n1 [Example 2, 1-[4-[6-[5-[[6-(cyclobutoxy)pyrazin-2-yl]amino]-1-methyl-pyrazol-4-yl]-3-pyridyl]phenyl]cyclopropanecarboxylic Acid] | 327 | 9.22 | 17.2 | 
Cn1ncc(-c2ncc(-c3ccc(C4(C(=O)O)CC4)cc3)cc2F)c1Nc1cncc(OC2CC2)n1 [Example 3, 1-[4-[6-[5-[[6-(cyclopropoxy)pyrazin-2-yl]amino]-1-methyl-pyrazol-4-yl]-5-fluoro-3-pyridyl]phenyl]cyclopropanecarboxylic Acid; Hydrochloride] | 2480 | 3.8 | 8.61 | 44.2
Cn1ncc(-c2ncc(-c3ccc(C4(C(=O)O)CC4)cc3)cc2F)c1Nc1cncc(C(C)(C)F)n1 [Example 4, 1-[4-[5-fluoro-6-[5-[[6-(1-fluoro-1-methyl-ethyl)pyrazin-2-yl]amino]-1-methyl-pyrazol-4-yl]-3-pyridyl]phenyl]cyclopropanecarboxylic Acid Hydrochloride] | 1590 | 8.67 | 16.7 | 80.5
Cn1ncc(-c2ccc(-c3ccc(C4(C(=O)O)CC4)cc3)cn2)c1Nc1cncc(OC2CC(F)(F)C2)n1 [Example 5, 1-[4-[6-[5-[[6-(3,3-difluorocyclobutoxy)pyrazin-2-yl]amino]-1-methyl-pyrazol-4-yl]-3-pyridyl]phenyl]cyclopropanecarboxylic Acid] | 49.6 | 17.1 | 26.9 | 51.4
COC(C)(C)c1cncc(Nc2c(-c3ccc(-c4ccc(C5(C(=O)O)CC5)cc4)cn3)cnn2C)n1 [Example 6, 1-[4-[6-[5-[[6-(1-methoxy-1-methyl-ethyl)pyrazin-2-yl]amino]-1-methyl-pyrazol-4-yl]-3-pyridyl]phenyl]cyclopropanecarboxylic Acid; Hydrochloride] | 5270 | 60.5 | 122 | 115
Cc1cc(-c2ccc(-c3cnn(C)c3Nc3cncc(OC(C)C)n3)nc2)ccc1C1(C(=O)O)CC1 [Example 7, 1-[4-[6-[5-[(6-isopropoxypyrazin-2-yl)amino]-1-methyl-pyrazol-4-yl]-3-pyridyl]-2-methyl-phenyl]cyclopropanecarboxylic Acid; Hydrochloride] | 1050 | 16.3 | 27.1 | 72.3
Cn1ncc(-c2ccc(-c3ccc(C4(C(=O)O)CC4)c(C(F)(F)F)c3)cn2)c1Nc1cncc(OC2CC2)n1 [Example 8, 1-[4-[6-[5-[[6-(cyclopropoxy)pyrazin-2-yl]amino]-1-methyl-pyrazol-4-yl]-3-pyridyl]-2-(trifluoromethyl)phenyl]cyclopropanecarboxylic Acid; Hydrochloride] |  | 7.13 |  | 
Cn1ncc(-c2ccc(-c3ccc(C4(C(=O)O)CC4)c(C#N)c3)cn2)c1Nc1cncc(OC2CC2)n1 [Example 9, 1-[2-cyano-4-[6-[5-[[6-(cyclopropoxy)pyrazin-2-yl]amino]-1-methyl-pyrazol-4-yl]-3-pyridyl]phenyl]cyclopropanecarboxylic Acid; Hydrochloride] | > 10000 | 10.5 | 17.9 | 
Cn1ncc(-c2ccc(-c3ccc(C4(C(=O)O)CC4)cc3)cn2)c1Nc1cncc(OC2CC2)n1 [Example 10, 1-[4-[6-[5-[[6-(cyclopropoxy)pyrazin-2-yl]amino]-1-methyl-pyrazol-4-yl]-3-pyridyl]phenyl]cyclopropanecarboxylic Acid] | 4420 | 5.41 | 9.86 | 12.5
CC(C)Oc1cncc(Nc2c(-c3ncc(-c4ccc(C5(C(=O)O)CC5)cc4)cc3F)cnn2C)n1 [Example 11, 1-[4-[5-fluoro-6-[5-[(6-isopropoxypyrazin-2-yl)amino]-1-methyl-pyrazol-4-yl]-3-pyridyl]phenyl]cyclopropanecarboxylic Acid; Hydrochloride] | 495 | 10 | 11.1 | 34.6
Cn1ncc(-c2ccc(-c3ccc(C4(C(=O)O)CC4)cc3)cn2)c1Nc1cncc(C(C)(F)F)n1 [Example 12, 1-[4-[6-[5-[[6-(1,1-difluoroethyl)pyrazin-2-yl]amino]-1-methyl-pyrazol-4-yl]-3-pyridyl]phenyl]cyclopropanecarboxylic Acid; Hydrochloride] | 4280 | 14.4 | 24.4 | 40.9
Cn1ncc(-c2ccc(-c3ccc(C4(C(=O)O)CC4)cc3)cn2)c1Nc1cncc(C(C)(C)F)n1 [Example 13, 1-[4-[6-[5-[[6-(1-fluoro-1-methyl-ethyl)pyrazin-2-yl]amino]-1-methyl-pyrazol-4-yl]-3-pyridyl]phenyl]cyclopropanecarboxylic Acid; Hydrochloride] | 804 | 10.5 | 44 | 28
COCc1cc(C2(C(=O)O)CC2)ccc1-c1ccc(-c2cnn(C)c2Nc2cncc(C(C)C)n2)nc1 [Example 14, 1-[4-[6-[5-[(6-isopropylpyrazin-2-yl)amino]-1-methyl-pyrazol-4-yl]-3-pyridyl]-3-(methoxymethyl)phenyl]cyclopropanecarboxylic Acid; Hydrochloride] | > 10000 | 13.2 | 45.8 | 
CC(C)c1cncc(Nc2c(-c3ccc(-c4ccc(C5(C(=O)O)CC5)cc4CC#N)cn3)cnn2C)n1 [Example 15, 1-[3-(cyanomethyl)-4-[6-[5-[(6-isopropylpyrazin-2-yl)amino]-1-methyl-pyrazol-4-yl]-3-pyridyl]phenyl]cyclopropanecarboxylic Acid; Hydrochloride] | > 10000 | 19.4 | 42.9 | 94.8
CC(C)c1cncc(Nc2c(-c3ccc(-c4ccc(C5(C(=O)O)CC5)cc4C#N)cn3)cnn2C)n1 [Example 16, 1-[3-cyano-4-[6-[5-[(6-isopropylpyrazin-2-yl)amino]-1-methyl-pyrazol-4-yl]-3-pyridyl]phenyl]cyclopropanecarboxylic Acid; Hydrochloride] | 4620 | 18.2 | 29.3 | 53.8
CC(C)c1cncc(Nc2c(-c3cnc(-c4ccc(C5(C(=O)O)CC5)cc4)cn3)cnn2C)n1 [Example 19, 1-[4-[5-[5-[(6-isopropylpyrazin-2-yl)amino]-1-methyl-pyrazol-4-yl]pyrazin-2-yl]phenyl]cyclopropanecarboxylic Acid; Hydrochloride] | 2400 | 16.3 | 88.1 | 
